The test system of data set [1] is T1, Discoidin domain-containing receptor 2 (Homo sapiens), Q16832 [N456S].
T1 sequence (whole entry): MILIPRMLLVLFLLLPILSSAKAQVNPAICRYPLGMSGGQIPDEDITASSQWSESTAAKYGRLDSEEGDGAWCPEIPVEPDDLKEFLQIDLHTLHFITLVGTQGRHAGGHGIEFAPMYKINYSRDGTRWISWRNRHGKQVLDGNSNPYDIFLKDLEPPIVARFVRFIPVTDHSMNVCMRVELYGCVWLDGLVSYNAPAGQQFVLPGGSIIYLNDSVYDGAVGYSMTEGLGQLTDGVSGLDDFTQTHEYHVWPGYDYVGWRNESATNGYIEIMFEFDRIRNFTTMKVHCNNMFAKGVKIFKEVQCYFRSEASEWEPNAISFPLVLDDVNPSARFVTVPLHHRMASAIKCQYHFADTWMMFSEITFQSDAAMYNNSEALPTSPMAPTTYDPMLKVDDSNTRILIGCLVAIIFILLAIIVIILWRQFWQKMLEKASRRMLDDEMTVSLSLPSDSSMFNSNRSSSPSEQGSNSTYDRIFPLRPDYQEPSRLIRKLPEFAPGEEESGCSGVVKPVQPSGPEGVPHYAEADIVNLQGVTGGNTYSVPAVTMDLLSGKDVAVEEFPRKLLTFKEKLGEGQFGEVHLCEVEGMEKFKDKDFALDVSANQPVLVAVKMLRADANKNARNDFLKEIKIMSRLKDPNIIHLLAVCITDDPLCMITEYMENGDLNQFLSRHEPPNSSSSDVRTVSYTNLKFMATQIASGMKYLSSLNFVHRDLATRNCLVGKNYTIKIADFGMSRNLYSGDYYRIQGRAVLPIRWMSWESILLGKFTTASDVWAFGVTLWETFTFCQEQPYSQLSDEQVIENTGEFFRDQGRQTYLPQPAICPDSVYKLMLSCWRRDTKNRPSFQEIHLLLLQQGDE
The data set can be described thus: (§1) Selectivity interaction (LanthaScreen Eu Kinase Binding Assay) EUB0001632a DDR2. To be noted: at 10 µM. In general terms: TR-FRET usually uses a lanthanide donor and a delayed reading to cut background.

Data set [2] deals with T2, Discoidin domain-containing receptor 2 (Homo sapiens), Q16832 [T654M].
T2 sequence (whole entry): T1 sequence (whole entry) with S456N, T654M
The description is as §1. The note with it: at 10 µM.

Data set [3] deals with Tyrosine-protein kinase FRK (Homo sapiens) (UniProt P42685). Description: Selectivity interaction (Kinase panel (Z-LYTE Assay)) EUB0001632a FRK. To be noted: at 10 µM.
Tyrosine-protein kinase FRK (Homo sapiens), sequence (P42685 whole entry): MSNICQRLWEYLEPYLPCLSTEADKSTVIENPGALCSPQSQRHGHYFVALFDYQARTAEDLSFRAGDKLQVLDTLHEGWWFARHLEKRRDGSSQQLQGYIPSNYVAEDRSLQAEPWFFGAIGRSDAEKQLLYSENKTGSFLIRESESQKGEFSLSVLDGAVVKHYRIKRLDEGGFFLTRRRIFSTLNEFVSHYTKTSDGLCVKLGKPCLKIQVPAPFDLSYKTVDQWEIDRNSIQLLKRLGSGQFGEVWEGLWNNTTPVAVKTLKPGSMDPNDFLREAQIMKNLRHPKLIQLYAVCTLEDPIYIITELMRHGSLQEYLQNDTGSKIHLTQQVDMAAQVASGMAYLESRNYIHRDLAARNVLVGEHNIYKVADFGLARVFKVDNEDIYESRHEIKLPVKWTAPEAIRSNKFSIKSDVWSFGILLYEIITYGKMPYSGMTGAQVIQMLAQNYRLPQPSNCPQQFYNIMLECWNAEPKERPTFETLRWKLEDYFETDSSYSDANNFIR
Data set [4] deals with Mitogen-activated protein kinase 8 (Homo sapiens, UniProt P45983). Description: Selectivity interaction (Kinase panel (Z-LYTE Assay)) EUB0001632a MAPK8. To be noted: at 10 µM.
Mitogen-activated protein kinase 8, sequence (P45983 whole entry): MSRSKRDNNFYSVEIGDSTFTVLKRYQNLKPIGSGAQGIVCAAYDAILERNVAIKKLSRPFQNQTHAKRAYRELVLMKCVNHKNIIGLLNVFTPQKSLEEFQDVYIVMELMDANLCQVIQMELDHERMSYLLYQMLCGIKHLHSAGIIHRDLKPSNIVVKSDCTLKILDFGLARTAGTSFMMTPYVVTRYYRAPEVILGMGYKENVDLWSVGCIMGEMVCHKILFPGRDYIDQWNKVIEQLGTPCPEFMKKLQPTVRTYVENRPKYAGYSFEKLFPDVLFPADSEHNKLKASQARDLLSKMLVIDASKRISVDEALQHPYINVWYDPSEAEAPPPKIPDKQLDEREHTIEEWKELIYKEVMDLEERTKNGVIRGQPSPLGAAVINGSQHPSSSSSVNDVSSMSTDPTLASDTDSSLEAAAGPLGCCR
The target of data set [5] is Cyclin-dependent kinase 1/cyclin B (Homo sapiens) (UniProt P06493+P14635+Q8WWL7+O95067). The data set can be described thus: Selectivity interaction (SelectScreen profiling (Invitrogen)) EUB0000607a CDK1. Type of data set: protein-complex assay. To be noted: at 2 µM.
Data set [6] deals with Mitogen-activated protein kinase kinase kinase 8 (Homo sapiens, UniProt P41279). The data set can be described thus: Selectivity interaction (SelectScreen profiling (Invitrogen)) EUB0000607a MAP3K8. The note with it: at 2 µM.
Mitogen-activated protein kinase kinase kinase 8, sequence (P41279 whole entry): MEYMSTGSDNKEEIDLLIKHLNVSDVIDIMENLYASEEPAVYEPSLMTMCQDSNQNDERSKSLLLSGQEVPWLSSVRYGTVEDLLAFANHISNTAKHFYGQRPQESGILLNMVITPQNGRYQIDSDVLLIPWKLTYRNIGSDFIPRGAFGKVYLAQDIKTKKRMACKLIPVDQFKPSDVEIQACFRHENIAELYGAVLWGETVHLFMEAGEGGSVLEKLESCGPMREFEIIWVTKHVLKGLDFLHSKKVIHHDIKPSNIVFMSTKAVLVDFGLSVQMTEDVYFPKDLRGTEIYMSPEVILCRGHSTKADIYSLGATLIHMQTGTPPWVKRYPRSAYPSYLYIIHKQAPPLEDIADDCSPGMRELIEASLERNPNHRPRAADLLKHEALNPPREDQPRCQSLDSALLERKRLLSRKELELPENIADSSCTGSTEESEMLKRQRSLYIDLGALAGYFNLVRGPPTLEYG
Data set [7] deals with Dual specificity mitogen-activated protein kinase kinase 1 (Homo sapiens, UniProt Q02750). Description: Selectivity interaction (ActivX KiNativ screen (kinase selectivity in THP-1 cell lysates)) EUB0000639a MAP2K1. Type of data set: subcellular. The note with it: lysate, at 0.04 µM.
Data set [8] addresses Phosphatidylinositol 4-kinase beta (Homo sapiens, UniProt Q9UBF8). Description: Selectivity interaction (ActivX KiNativ screen (kinase selectivity in THP-1 cell lysates)) EUB0000639a PI4KB. Format: subcellular. To be noted: lysate, at 5 µM.
For data set [9], the target named is Ribosomal protein S6 kinase alpha-1 (Homo sapiens, UniProt Q15418). The data set can be described thus: Selectivity interaction (Kinase screening (Nanosyn)) EUB0000604a RPS6KA1.
The target of data set [10] is MAP kinase-activated protein kinase 2 (Homo sapiens, UniProt P49137). The data set can be described thus: Selectivity interaction (ProQinase) EUB0000171b MAPKAPK2.
MAP kinase-activated protein kinase 2, sequence (P49137 whole entry, looked up): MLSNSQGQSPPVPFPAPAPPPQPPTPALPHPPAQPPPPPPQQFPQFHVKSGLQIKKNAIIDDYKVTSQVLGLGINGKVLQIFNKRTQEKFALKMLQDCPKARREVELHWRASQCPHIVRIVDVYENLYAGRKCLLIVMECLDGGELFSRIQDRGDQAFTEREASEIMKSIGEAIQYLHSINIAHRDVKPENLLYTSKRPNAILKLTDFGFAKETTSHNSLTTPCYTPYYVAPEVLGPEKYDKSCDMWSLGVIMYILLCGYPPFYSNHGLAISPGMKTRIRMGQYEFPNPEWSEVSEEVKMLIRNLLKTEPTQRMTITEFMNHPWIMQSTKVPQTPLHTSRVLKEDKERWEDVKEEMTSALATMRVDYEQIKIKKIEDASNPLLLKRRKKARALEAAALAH
The target in data set [11] is L-type calcium channel Cav1.2 (CACNA1C) (Homo sapiens, UniProt Q13936). Description: Selectivity interaction (Panel of kinases, GPCRs, ion channels and transporters (enzymatic assay)) EUB0000223bCl CACNA1C.
L-type calcium channel Cav1.2 (CACNA1C), sequence (Q13936 whole entry): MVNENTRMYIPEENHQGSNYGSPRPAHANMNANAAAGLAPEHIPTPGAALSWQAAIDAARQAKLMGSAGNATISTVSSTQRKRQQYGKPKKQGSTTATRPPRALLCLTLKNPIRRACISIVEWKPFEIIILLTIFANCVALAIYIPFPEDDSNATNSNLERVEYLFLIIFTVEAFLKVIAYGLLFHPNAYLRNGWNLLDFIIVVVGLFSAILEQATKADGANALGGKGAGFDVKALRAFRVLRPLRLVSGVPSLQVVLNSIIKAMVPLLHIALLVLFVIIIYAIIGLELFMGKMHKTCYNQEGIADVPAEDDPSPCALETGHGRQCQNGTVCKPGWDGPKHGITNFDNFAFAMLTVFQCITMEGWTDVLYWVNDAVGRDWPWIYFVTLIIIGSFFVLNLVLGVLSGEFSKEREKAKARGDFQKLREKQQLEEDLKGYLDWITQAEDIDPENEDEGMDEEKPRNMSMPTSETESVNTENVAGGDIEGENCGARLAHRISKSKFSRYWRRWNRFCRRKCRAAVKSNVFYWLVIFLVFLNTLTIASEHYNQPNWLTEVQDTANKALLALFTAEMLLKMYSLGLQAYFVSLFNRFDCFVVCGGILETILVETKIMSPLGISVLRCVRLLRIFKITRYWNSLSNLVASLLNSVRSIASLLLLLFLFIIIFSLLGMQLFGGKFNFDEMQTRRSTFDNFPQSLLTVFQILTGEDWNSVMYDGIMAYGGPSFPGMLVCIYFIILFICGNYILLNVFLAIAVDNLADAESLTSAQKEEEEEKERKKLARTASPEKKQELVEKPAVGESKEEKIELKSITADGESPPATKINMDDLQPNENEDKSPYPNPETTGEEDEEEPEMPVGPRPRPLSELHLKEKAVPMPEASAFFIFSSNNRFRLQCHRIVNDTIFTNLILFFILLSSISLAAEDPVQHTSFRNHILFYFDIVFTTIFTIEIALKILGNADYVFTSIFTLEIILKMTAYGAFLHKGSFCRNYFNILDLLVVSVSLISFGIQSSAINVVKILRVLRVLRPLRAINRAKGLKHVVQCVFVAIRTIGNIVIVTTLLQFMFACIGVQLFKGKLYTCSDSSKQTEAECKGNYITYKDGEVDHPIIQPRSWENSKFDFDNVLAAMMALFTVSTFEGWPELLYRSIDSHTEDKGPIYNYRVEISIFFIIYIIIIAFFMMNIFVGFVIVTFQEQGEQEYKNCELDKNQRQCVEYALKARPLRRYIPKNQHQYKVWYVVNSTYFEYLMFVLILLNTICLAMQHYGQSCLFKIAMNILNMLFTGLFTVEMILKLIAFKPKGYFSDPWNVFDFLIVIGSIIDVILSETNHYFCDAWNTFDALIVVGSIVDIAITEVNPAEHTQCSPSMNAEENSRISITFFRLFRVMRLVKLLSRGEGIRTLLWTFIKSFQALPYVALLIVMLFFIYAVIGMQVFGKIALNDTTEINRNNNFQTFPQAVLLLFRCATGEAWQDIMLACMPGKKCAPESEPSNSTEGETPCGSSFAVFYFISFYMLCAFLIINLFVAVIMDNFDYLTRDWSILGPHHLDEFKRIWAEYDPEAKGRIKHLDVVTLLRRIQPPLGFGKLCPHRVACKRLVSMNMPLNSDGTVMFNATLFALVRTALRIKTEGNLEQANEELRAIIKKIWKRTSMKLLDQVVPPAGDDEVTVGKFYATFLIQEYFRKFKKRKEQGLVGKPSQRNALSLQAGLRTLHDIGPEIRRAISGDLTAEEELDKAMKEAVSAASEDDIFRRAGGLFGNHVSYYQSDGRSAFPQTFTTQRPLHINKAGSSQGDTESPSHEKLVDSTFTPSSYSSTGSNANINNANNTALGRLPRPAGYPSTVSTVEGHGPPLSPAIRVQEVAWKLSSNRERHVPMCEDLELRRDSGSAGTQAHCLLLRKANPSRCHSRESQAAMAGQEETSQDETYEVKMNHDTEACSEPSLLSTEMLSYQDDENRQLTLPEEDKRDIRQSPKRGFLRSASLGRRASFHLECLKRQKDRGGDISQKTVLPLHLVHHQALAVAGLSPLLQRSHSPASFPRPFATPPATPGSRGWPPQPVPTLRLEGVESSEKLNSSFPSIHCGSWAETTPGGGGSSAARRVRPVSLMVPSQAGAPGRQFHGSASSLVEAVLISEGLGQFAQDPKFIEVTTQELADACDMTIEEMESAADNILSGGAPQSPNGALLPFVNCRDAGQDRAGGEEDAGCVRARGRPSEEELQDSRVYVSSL

Changes are numbered by the printed parent chain.

Phosphatidylinositol 4-kinase beta, sequence (Q9UBF8 2-816 limits assumed): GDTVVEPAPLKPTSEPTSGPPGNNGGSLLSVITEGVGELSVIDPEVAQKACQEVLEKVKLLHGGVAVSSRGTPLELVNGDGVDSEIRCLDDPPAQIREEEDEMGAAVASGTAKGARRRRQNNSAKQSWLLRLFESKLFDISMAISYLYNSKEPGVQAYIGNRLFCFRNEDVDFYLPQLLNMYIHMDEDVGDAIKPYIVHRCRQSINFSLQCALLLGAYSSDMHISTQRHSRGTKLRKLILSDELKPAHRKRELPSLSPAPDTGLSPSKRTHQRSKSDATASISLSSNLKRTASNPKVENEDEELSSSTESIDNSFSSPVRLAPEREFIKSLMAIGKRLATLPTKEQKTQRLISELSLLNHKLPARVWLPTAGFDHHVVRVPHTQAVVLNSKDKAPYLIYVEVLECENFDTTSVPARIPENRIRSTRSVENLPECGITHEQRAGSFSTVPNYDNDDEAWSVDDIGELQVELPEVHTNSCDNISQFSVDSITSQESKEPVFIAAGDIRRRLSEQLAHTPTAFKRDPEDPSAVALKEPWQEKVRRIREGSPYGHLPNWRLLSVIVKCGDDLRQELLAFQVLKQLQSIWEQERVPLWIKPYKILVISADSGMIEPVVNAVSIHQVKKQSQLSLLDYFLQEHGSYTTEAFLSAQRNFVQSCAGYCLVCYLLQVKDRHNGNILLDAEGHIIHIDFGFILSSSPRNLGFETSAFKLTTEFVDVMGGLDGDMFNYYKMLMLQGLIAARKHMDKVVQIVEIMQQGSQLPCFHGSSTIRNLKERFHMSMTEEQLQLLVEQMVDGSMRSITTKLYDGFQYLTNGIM

As for `Cn1cc(-n2cnc3c(NCc4nc5cc(Cl)c(Cl)cc5[nH]4)nc(N4CCOCC4)nc32)cn1`, the results for the % of inhibition in data set [1] and in data set [2] were -20.1% and -29.9%, respectively. Moreover, the % of control in data set [3] is 5.87%; in data set [4] it was -4.21%.

Turning to `CNC(=O)Nc1ccc(-c2nc(N3CC4CCC(C3)O4)c3cnn(C4CCC5(CC4)OCCO5)c3n2)cc1`, the % of inhibition in data set [5] is 6%; in data set [6] it was 1%.

Turning to `CC[C@@H]1[C@H](F)C(=O)N[C@@H]1COc1nccc2cc(C(N)=O)c(OC)cc12` [ZIMLOVISERTIB], the % of inhibition in [7] was found to be 5.6%; in data set [8] it was 5.2%.

For `Cc1cnc(Nc2ccc(F)cc2Cl)nc1-c1c[nH]c(C(=O)N[C@H](CO)c2cccc(Cl)c2)c1`, in data set [9], the % of inhibition was determined as 4%.

On to `C=CC(=O)Nc1cccc(C(=O)Nc2ccc(Nc3cc(-c4[nH]c(SC)nc4C)ccn3)cc2)c1`, for which the % of control in data set [10] (at 1 µM) was found to be 71%; in [10] (at 5 µM) it was 42%.

As for `COc1cc(C(=O)N2CC[C@@H](O)[C@@H](N)C2)cc2nc(-c3cc4ccccc4n3CC3CC3)n(C)c12`, the XC50 in [11] was 3.98 µM.

For the origin of these results see ChEMBL document CHEMBL5465560, “Selectivity Literature for EUbOPEN Chemogenomic Library” (2024).
